Measurements reported in US7038055B2, “Sulfone derivatives and their use in the treatment of autoimmune diseases and allergies” (SmithKlineBeecham plc, priority 2001, dated 2006).

What was measured:
MMP-13 = target: T1, MMP-13 (Homo sapiens, UniProt P45452); experiment: General MMP Inhibition Assay, fluorescence quench (MMP-13); type: biochemical; conditions: room temperature
T1 construct: purchased Calbiochem
Method: (§1) General MMP Inhibition Assays:
(§2) Inhibition of matrix metalloprotease activity was determined using a fluorescence quench assay with appropriate substrate. For example, MMP activity was determined using MMP activated using trypsin, according to Lark et al, Connective Tissue Res. 25, 52 (1990). The MMP is incubated at room temperature in a microtitre plate in a total volume of 100 ul, containing 0.15 M Tris Cl, 15 mM CaCl2, 0.2 M NaCl, pH 7.6 (assay buffer); inhibitor at concentrations up to 100 uM, with no more than 2% DMSO final concentration, 10 uM substrate (such as SDP-3815-PI for MMP-1, Peptides International). The MMP concentration is <10 nM, and determined empirically with the appropriate substrate to give at least a 20-fold increase in fluorescence emission in 30 min. Fluorescent excitation wavelength was 355 nm, emission wavelength 400–460 nm, and data points are collected to generate slope (change in fluorescence with time). Percent inhibition for each concentration is calculated from the slope at time zero, and IC50 values from the concentration dependence. MMP-1, 2, 3, 7, 9, 13, 14 may all be assayed in the same manner, using commercially available substrates reported to be effective for each enzyme. Enzymes were obtained from Calbiochem and activated using the same trypsin method.

[1] = system: CD23 cleavage activity (release of soluble CD23) in RPMI 8866 cell plasma membranes; experiment: RPMI 8866 Cell Membrane CD23 Cleavage Activity Assay; type: biochemical, human; conditions: RPMI 8866 plasma membranes, 37° C., sCD23 by EIA; read-out: IC50, inhibition of production of sCD23
Method: Procedure 1: The ability of test compounds to inhibit the release of soluble CD23 was investigated by use of the following procedure.
RPMI 8866 Cell Membrane CD23 Cleavage Activity Assay:
Plasma membranes from RPMI 8866 cells, a human Epstein-Barr virus transformed B-cell line (Sarfati et al., Immunology 60 [1987] 539–547) expressing high levels of CD23 are purified using an aqueous extraction method. Cells resuspended in homogenization buffer (20 mM HEPES pH 7.4, 150 mM NaCl, 1.5 mM MgCl2, 1 mM DTT) are broken by N2 cavitation in a Parr bomb and the plasma membrane fraction mixed with other membranes is recovered by centrifugation at 10,000×g. […]
The fractionated membranes are incubated at 37° C. for times up to 4 hrs to produce fragments of CD23 which are separated from the membrane by filtration in 0.2 micron Durapore filter plates (Millipore) after quenching the assay with a non-selecitve MMP inhibitor, e.g. 5 uM Preparation 1 from WO 95/31457 ([4-(N-Hydroxyamino)-2-(R)-isobutyl-3-(S)-(2-thiophenethiomethyl)succinyl]-(S)-phenylalanine-N-methylamide sodium salt, prepared according to the procedure described in Example 11 of WO 90/05719). sCD23 released from the membrane is determined using the EIA kit from The Binding Site (Birmingham, UK) or a similar one utilising MHM6 anti-CD23 mAb [Rowe et al., Int. […]

[2] = target: T2, human recombinant collagenase (Homo sapiens, UniProt P03956); experiment: Collagenase Inhibition Assay; type: biochemical; conditions: 37° C., 18 h, 3H type 1 bovine collagen; read-out: IC50, collagenase inhibition (procedure 2)
T2 construct: made in house; host or cells: E. coli
T2 sequence (P03956 100-469): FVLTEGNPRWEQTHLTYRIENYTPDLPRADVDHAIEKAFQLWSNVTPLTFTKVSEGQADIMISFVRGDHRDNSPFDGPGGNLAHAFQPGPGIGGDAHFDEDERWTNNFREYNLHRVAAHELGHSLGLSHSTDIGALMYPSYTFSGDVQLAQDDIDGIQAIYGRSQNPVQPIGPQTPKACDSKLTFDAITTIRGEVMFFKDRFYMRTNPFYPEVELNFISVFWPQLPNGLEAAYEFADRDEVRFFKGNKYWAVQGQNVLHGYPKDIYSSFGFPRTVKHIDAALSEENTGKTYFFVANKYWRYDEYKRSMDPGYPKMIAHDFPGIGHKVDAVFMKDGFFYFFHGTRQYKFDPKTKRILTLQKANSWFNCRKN
Method: Procedure 2: The ability of test compounds to inhibit matrix metalloproteases was investigated using the following procedures.
Collagenase Inhibition Assay:
The potency of compounds to act as inhibitors of collagenase was determined by the method of Cawston and Barrett (Anal. Biochem. 99, 340–345, 1979), hereby incorporated by reference, whereby a 1 mM solution of the inhibitor being tested or dilutions thereof, was incubated at 37° C. for 18 h with collagen and human recombinant collagenase, from synovial fibroblasts cloned, expressed and purified from E. Coli, (buffered with 150 mM Tris, pH 7.6, containing 15 mM calcium chloride, 0.05% Brij 35, 200 mM sodium chloride and 0.02% sodium azide). The collagen was acetylated ^3H type 1 bovine collagen prepared by the method of Cawston and Murphy (methods in Enzymology 80, 711, 1981) The samples were centrifuged to sediment undigested collagen and an aliquot of the radioactive supernatant removed for assay on a scintillation counter as a measure of hydrolysis. The collagenase activity in the presence of 1 mM inhibitor, or dilution thereof, was compared to activity in a control devoid of inhibitor and the results reported as that concentration effecting 50% of the collagenase (IC50).

MMP-3 = target: T3, MMP-3 (Homo sapiens, UniProt P08254); experiment: General MMP Inhibition Assay, fluorescence quench (MMP-3); type: biochemical; conditions: room temperature
T3 construct: purchased Calbiochem
T3 sequence (P08254 100-477, species assumed): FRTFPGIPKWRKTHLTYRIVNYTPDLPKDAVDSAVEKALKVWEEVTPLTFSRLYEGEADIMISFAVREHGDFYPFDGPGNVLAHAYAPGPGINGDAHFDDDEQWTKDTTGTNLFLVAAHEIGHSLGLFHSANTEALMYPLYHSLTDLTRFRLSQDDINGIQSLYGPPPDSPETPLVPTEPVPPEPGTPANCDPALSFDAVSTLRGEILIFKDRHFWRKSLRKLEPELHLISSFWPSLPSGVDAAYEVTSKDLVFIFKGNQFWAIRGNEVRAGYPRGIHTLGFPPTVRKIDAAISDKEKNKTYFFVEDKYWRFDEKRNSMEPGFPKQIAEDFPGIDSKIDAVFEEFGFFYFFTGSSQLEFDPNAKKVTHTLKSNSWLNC
Method: as §1, §2

IC50 (MMP-13) [nM] | IC50 [1] [nM] | IC50 [2] [nM] | IC50 (MMP-3) [nM] | SMILES
3000 |  |  |  | CO[C@@H](C)C(CS(=O)(=O)Cc1cnc2ccccc2c1)N(O)C=O (stereo in doubt) [Example 2, N-[(2R,3S)-3-methoxy-1-(quinolin-3-yl-methanesulfonyl)butan-2-yl]-hydroxyformamide]
2600 | 20 | > 10000 | > 10000 | CO[C@H](C)[C@@H](CS(=O)(=O)Cc1cnc2ccccc2c1)N(O)C=O [Example 1, N-[(2S,3R)-3-methoxy-1-(quinolin-3-yl-methanesulfonyl)butan-2-yl]-hydroxyformamide]
